For data set [1], the system named is 18f-NLuc reporter virus (HM175/18f HAV). In words: Antiviral activity against human hepatitis A virus, 18f-NLuc reporter virus in Huh-7 cells. Format: cell-based, Human Hepatitis A Virus (Hepatovirus A). The procedure:
Assay for Antiviral Activity Against Human Hepatitis A Virus (Hepatovirus A).
(§1) Assays for the anti-HAV activity of the hepatoselective DHQ compounds were carried out in Huh-7 human hepatoma cells using the 18f-NLuc reporter virus, which expresses nanoluciferase (NLuc) from sequence inserted into the polyprotein coding region of the HM175/18f HAV genome between the VP1pX and 2B coding sequences (Yamane et al., 2019). The method was modified minimally from that described by Misumi et al. for iminosugar compounds (Misumi et al., 2021). Cells (approximately […]) were plated in wells of a 96-well plate with Dulbecco's modified Eagle medium (DMEM) and 10% fetal bovine serum. The cells were inoculated 24 hrs later with 18f-NLuc virus (approximately 10^6-10^7 genome equivalents) in medium containing increasing concentrations of the compounds of interest. The cells were re-incubated for 48 hrs at 37° C. in a 5% CO2 environment, then lysed in 1× passive lysis buffer (Promega) for 15 min at room temperature. Cell lysates were transferred to an opaque white 96-well plate (Corning, 3912) and NLuc assay carried out using the NLuc GLOW Assay kit (Nanolight Technology). Luminescence was measured using a Biotek Synergy II multi-mode plate reader (BioTek Instruments). The percent inhibition of replication was calculated by determining the reduction in NLuc activity from that expressed by infected cells incubated in parallel in the absence of compound, and 50% inhibitory endpoints estimated by fitting the data to a four parameter variable slope logistic curve using Prism 9 for Mac OS software (GraphPad). Cell toxicity of the compounds was assessed using the WST-1 Cell Proliferation Reagent (Sigma-Aldrich) at the end of the treatment period in parallel cultures of uninfected cells, with WST-1 reagent added to cultures for 1 hr prior to harvest and O.D. reading.
as §1, with “Additional exemplary compounds of the present invention are evaluated for anti-HAV activity in accordance with certain assays described hereinabove. As discussed above, assays” for “Assays”, “10^6-107” for “10^6-10^7”

A further data set can be described thus: in vitro. Format: cell-based. As to conditions: human. The procedure: Assays for the anti-HAV activity of the hepatoselective DHQ compounds were carried out in Huh-7 human hepatoma cells using the 18f-NLuc reporter virus, which expresses nanoluciferase (NLuc) from sequence inserted into the polyprotein coding region of the HM175/18f HAV genome between the VP1pX and 2B coding sequences (Yamane et al., 2019). The method was modified minimally from that described by Misumi et al. for iminosugar compounds (Misumi et al., 2021). Cells (approximately […]) were plated in wells of a 96-well plate with Dulbecco's modified Eagle medium (DMEM) and 10% fetal bovine serum. The cells were inoculated 24 hrs later with 18f-NLuc virus (approximately 10^6-10^7 genome equivalents) in medium containing increasing concentrations of the compounds of interest. […] Luminescence was measured using a Biotek Synergy II multi-mode plate reader (BioTek Instruments). […] Cell toxicity of the compounds was assessed using the WST-1 Cell Proliferation Reagent (Sigma-Aldrich) at the end of the treatment period in parallel cultures of uninfected cells, with WST-1 reagent added to cultures for 1 hr prior to harvest and O.D. reading.
Additional exemplary compounds of the present invention are evaluated for anti-HAV activity in accordance with certain assays described hereinabove. […] Luminescence was measured using a Biotek Synergy II multi-mode plate reader (BioTek Instruments). […]

A further data set deals with T1, OATP1B1 (Homo sapiens, UniProt Q9Y6L6).
T1 construct: expressed in transfected cells; host or cells: HEK293
T1 sequence (Q9Y6L6 1-691): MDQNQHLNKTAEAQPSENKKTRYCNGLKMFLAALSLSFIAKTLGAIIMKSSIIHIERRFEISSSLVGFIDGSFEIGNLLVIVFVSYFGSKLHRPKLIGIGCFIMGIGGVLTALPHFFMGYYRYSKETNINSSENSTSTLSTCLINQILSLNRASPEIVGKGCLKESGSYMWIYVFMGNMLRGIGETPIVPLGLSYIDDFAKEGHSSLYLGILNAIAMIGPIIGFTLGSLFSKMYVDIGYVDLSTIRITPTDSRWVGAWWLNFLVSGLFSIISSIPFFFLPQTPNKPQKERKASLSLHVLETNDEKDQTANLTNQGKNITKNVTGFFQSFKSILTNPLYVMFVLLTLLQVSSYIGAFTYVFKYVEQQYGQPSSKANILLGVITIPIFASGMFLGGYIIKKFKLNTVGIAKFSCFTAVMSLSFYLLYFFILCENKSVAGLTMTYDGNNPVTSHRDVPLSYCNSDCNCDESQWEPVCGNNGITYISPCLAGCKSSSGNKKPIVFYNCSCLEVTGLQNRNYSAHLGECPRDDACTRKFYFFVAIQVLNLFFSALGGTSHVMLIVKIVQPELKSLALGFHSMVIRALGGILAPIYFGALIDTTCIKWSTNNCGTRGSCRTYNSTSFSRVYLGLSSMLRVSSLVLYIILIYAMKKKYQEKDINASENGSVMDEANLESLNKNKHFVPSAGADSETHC
In words: OATP1B1 transporter substrate uptake in OATP1B1-HEK293 cells. As to conditions: for Uptake Ratio (−/+Inhibitor): OATP1B1-HEK293 cells, inhibitor Rifamycin SV. Format: in vitro ADME. On the procedure: (§2) Protocol for identification of compounds that are substrates of transporters OATPIBI and OATPIB3. Transfected HEK293 and vector control HEK293 cells were cultured in 24-well poly-D-lysine or collagen-coated tissue culture plates ([…]) for 2 and 10 minutes respectively in transport buffer (HBSSg, pH 7.4, pre-warmed to 37° C.). At a defined time point, the uptake experiments were stopped by removing dosing solution followed by two washes of ice-cold HBSSg buffer. The cells were lysed for 2 minutes with 75% ACN containing an appropriate internal standard (when available). Lysis buffer were chilled to −20° C., and the plate was kept on ice during lysis. The cell lysate was transferred into a 96-well plate for sample analysis with LC-MS/MS analysis to determine concentration of test compound in cell lysate. The uptake of test compounds was normalized by total cell protein using the BCA Protein Assay Kit following the manufacturer's protocol. The inhibitor Rifamycin SV was used to block OATP1B1 and OATP1B3 transporter activity in order to determine uptake ratios.

Another data set concerns the target T2, OATP1B3 (Homo sapiens, UniProt Q9NPD5).
T2 construct: expressed in transfected cells; host or cells: HEK293
T2 sequence (Q9NPD5 1-702): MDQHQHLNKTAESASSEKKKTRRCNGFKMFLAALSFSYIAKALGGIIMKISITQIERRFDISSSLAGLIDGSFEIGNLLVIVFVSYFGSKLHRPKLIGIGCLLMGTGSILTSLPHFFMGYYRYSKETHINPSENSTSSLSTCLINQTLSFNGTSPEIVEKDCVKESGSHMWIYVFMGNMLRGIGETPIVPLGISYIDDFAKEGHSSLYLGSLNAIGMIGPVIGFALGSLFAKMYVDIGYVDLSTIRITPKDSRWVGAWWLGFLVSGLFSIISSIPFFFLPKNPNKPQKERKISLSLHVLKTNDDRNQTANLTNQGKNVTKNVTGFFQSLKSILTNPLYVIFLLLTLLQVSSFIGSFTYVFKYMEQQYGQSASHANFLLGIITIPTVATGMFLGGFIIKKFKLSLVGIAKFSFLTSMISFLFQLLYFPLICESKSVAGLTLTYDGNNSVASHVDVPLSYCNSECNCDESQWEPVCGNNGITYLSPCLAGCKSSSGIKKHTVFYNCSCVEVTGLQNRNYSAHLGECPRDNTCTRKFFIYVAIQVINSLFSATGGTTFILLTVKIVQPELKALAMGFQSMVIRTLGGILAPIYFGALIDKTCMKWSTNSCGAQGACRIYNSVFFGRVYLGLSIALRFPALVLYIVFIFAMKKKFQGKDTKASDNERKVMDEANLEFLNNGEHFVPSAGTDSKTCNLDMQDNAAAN
In words: OATP1B3 transporter substrate uptake in OATP1B3-HEK293 cells. The note with it: for Uptake Ratio (−/+Inhibitor): OATP1B3-HEK293 cells, inhibitor Rifamycin SV. Format: in vitro ADME. On the procedure:
as §2

Data set [2] deals with interaction of PAPD5 with ZCCHC14 (Homo sapiens, UniProt Q8NDF8). In words: Interaction of PAPD5 with ZCCHC14.
The test system of data set [3] is HAV. As to conditions: Ifnar1^−/− mice, cited from earlier work.
The subject of data set [4] is HAV. As to conditions: cited from earlier work.
Setting [5] is: read-out: EC50 HAV, Huh-7 cells, 18f-NLuc virus, 48 hrs.
Setting [6] is: Hepatovirus A, Huh-7, 48 h, read-out: EC50 HAV (nM), Huh-7 cells, 18f-NLuc virus, 48 hrs.

The structures appear in SMILES notation. Where two headings read alike, the source gives them in different places.

interaction of PAPD5 with ZCCHC14, sequence (Q8NDF8 whole entry): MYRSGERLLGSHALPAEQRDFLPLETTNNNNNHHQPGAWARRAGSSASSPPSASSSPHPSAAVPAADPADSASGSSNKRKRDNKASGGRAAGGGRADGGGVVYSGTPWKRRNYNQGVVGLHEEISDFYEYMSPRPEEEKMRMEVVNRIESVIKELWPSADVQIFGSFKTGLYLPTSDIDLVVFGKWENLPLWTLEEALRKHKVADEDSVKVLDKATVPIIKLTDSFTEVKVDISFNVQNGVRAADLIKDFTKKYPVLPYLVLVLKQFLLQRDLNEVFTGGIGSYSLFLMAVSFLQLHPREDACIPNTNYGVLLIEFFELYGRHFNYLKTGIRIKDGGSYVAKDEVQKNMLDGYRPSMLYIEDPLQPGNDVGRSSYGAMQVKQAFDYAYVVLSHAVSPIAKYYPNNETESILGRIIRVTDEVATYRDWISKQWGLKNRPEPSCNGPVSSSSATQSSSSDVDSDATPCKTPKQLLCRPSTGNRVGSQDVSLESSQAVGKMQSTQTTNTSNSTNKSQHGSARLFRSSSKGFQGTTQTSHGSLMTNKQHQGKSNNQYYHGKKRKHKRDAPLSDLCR

The term EC50 denotes the concentration needed to bring the measured effect to its halfway point. With `COc1cc2c(cc1OCCCCCCCCC(=O)O)C[C@@H](C(C)C)n1cc(C(=O)O)c(=O)cc1-2` [Example H], the EC50 in data set [1] (setting [5]) was 18.2 nM.
As usually defined, the CC50 is the concentration at which the toxic effect on the cells reaches its halfway point. `COc1cc2c(cc1OCCCCCCCCC(=O)O)C[C@@H](C(C)C)n1cc(C(=O)O)c(=O)cc1-2` [Example 8, (S)-9-((8-carboxyoctyl)oxy)-6-isopropyl-10-methoxy-2-oxo-6,7-dihydro-2H-pyrido[2,1-a]isoquinoline-3-carboxylic acid]: in the data set “in vitro”, the CC50 at 48 h was greater than 10000 nM. The EC50 in data set [1] (Hepatovirus A, Huh-7, 48 h, Huh-7 cells, 18f-NLuc virus, 48 hrs) was found to be 18.2 nM.
Regarding `COc1cc2c(cc1OCCCCCCCCC(=O)O)C[C@@H](C(C)C)n1cc(C(=O)O)c(=O)cc1-2` [Example A], the EC50 in data set [1] (setting [5]) was determined as 67 nM.
With `COCCCOc1cc2c(cc1OC)-c1cc(=O)c(C(=O)O)cn1[C@H](C(C)C)C2` [DHQ-1], the results for the “Uptake Ratio (−/+Inhibitor)” value on OATP1B1 (test concentration 1 μM) and on OATP1B3 (test concentration 1 μM) were 0.38 and 0.42, respectively. For the same compound, the “Uptake Ratio (Transporter(−Inhibitor)/Mock(−Inhibitor))” value on OATP1B1 (OATP1B1-HEK293 vs mock HEK293, test concentration 1 μM) worked out at 0.71; on OATP1B3 (OATP1B3-HEK293 vs mock HEK293, test concentration 1 μM) it was 0.56. Besides, the “Interaction of PAPD5 with ZCCHC14” value in data set [2] is reported as “prevents the interaction of PAPD5 with ZCCHC14”. Moreover, the Prevention of infection result in the data set on HAV [3] (given shortly after intravenous virus challenge) is “completely prevented infection”. Further, the “HAV replication in mice” value in the data set with HAV [3] (oral treatment) is “blocked HAV replication”. Moreover, in the data set with HAV [4], the “HAV replication in cultured cells” value was “inhibit HAV replication”.
As to `COc1cc2c(cc1OCCc1cccc(C(=O)O)c1)C[C@@H](C(C)C)n1cc(C(=O)O)c(=O)cc1-2` [Example C], the EC50 in data set [1] (setting [6]) was found to be 325 nM.
Consider `COc1cc2c(cc1OCCCCCCCCC(=O)O)C[C@@H](C(C)C)n1cc(C(=O)O)c(=O)cc1-2` [Example B], for which the EC50 in data set [1] (setting [5]) was determined as 63 nM.
Turning to `COc1cc2c(cc1OCCCc1ccc(C(=O)O)cc1)C[C@@H](C(C)C)n1cc(C(=O)O)c(=O)cc1-2` [Example E], the EC50 in data set [1] (setting [6]) came to 382 nM.
Same read-out and setting: the figure for `COc1cc2c(cc1OCCc1ccc(C(=O)O)cc1)C[C@@H](C(C)C)n1cc(C(=O)O)c(=O)cc1-2` [Example D] is 245 nM; for `COc1cc2c(cc1OCCCCCCC(=O)O)C[C@@H](C(C)C)n1cc(C(=O)O)c(=O)cc1-2` [Example G] it is 278 nM.
For the compound `C[C@]12CC[C@@H]3c4ccc(O)cc4CC[C@H]3[C@@H]1CC[C@@H]2O[C@@H]1O[C@H](C(=O)O)[C@@H](O)[C@H](O)[C@H]1O` [Estradiol 17-β Glucuronide], the “Uptake Ratio (−/+Inhibitor)” value worked out at 81.84 at OATP1B1 (test concentration 10 μM) and 86.15 at OATP1B3 (test concentration 10 μM). Moreover, the “Uptake Ratio (Transporter(−Inhibitor)/Mock(−Inhibitor))” value at OATP1B1 (OATP1B1-HEK293 vs mock HEK293, test concentration 10 μM) amounted to 48.70; at OATP1B3 (OATP1B3-HEK293 vs mock HEK293, test concentration 10 μM), 98.86.
`COc1cc2c(cc1OCCCCCC(C)(C)C(=O)O)C[C@@H](C(C)C)n1cc(C(=O)O)c(=O)cc1-2` [Example F]: in data set [1] (setting [6]), the EC50 is 25 nM.

These data come from US20260274836A1, “NOVEL HEPATOSELECTIVE POLYADENYLATING POLYMERASES INHIBITORS AND THEIR METHOD OF USE” (Baruch S. Blumberg Institute, priority 2022, published 2026).
